Consider 13 compounds from ChEMBL document CHEMBL1201862, “PubChem BioAssay data set” (2004).

The term GI50 denotes the concentration that inhibits growth by half.

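Five compound concentrations were applied to cells in 96-well plates for 48 hours; endpoints were derived by simple linear interpolation of the resulting dose-response curve. The concentration for 50% growth inhibition is given as GI50.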 The source made the active and inactive calls. No stated cut-off is given here; in the data, active = GI50 up to about 1.1 µM and inactive = higher.

Assay in all cases: DTP human tumour cell line panel, 48 h
The test system of assay [1] is CAKI-1.
Assay [2] deals with K562.
Assay [3] has as its system HL-60.
The subject of assay [4] is M14.
In assay [5] the test system is HOP-62.
In assay [6] the test system is SK-MEL-5.
For assay [7], the system named is OVCAR-4.
Assay [8] relates to NCI-H226.
Assay [9] relates to KM-20L2.
The subject of assay [10] is Malme-3M.
Assay [11] concerns Hs-578T.
For assay [12], the system named is MDA-MB-435.
In assay [13] the test system is PC-3.
Assay [14] concerns SN12C.
Assay [15] relates to MDA-N.
Assay [16] relates to MCF7.
For assay [17], the system named is BT-549.
Assay [18] concerns LOX IMVI.
The subject of assay [19] is T47D.

For `Cn1cc(C(=O)/C(Cl)=C(\Cl)C(=O)O)c2ccccc21`, the GI50 in assay [1], in assay [2], in assay [3], in [4], in [5] and in assay [6] was > 100 µM (inactive) throughout. Also, the GI50 in assay [7], in assay [8], in [9] and in [10] was > 100 µM (inactive) each time.

Take `COP(=O)(OC)C(N)CCSC` (stereo not drawn): the GI50 in assay [1], in [11], in assay [12], in assay [2], in assay [3] and in assay [4] was > 100 µM (inactive) in each case. Moreover, the GI50 in [13], in [5], in [6], in assay [7], in assay [8] and in [14] was > 100 µM (inactive) throughout. For the same compound, the GI50 in [15], in assay [16], in assay [10], in [17] and in assay [18] was > 100 µM (inactive) in each case.

For `O=C(c1ccc(Cl)cc1)N1CCN=C1c1cc2ccccc2c2ccccc12`, the GI50 in assay [1] is 15.7 µM (inactive); in assay [11], 17.5 µM (inactive); in assay [12], 15.7 µM (inactive); in assay [2], 27.7 µM (inactive); in assay [3], 21.8 µM (inactive); in assay [4], 38.7 µM (inactive). The GI50 was 17.1 µM (inactive) in [13]; 19.1 µM (inactive) in assay [19]; 18.8 µM (inactive) in [5]; 14.8 µM (inactive) in assay [6]; 14.2 µM (inactive) in assay [7]; 16.9 µM (inactive) in assay [14]. The GI50 is 16.4 µM (inactive) in assay [15]; 17.7 µM (inactive) in [16]; 17.3 µM (inactive) in [10]; 19 µM (inactive) in [17]; 17.8 µM (inactive) in assay [18].

With `CCCn1c(CN(Cc2nc3ccccc3n2CCC)Cc2nc3ccccc3n2CCC)nc2ccccc21`, the GI50 was 2.81 µM (inactive) in assay [1]; 25.6 µM (inactive) in assay [11]; 3.27 µM (inactive) in [12]; 1.23 µM (inactive) in assay [2]; 0.764 µM (active) in assay [3]; 2.46 µM (inactive) in assay [4]. The GI50 is 3.31 µM (inactive) in [13]; 2.55 µM (inactive) in assay [19]; 10.8 µM (inactive) in assay [5]; 2.55 µM (inactive) in assay [6]; 3.73 µM (inactive) in [7]; 6.47 µM (inactive) in [8]. Moreover, the GI50 in assay [14] was 2.01 µM (inactive); in [15], 2.26 µM (inactive); in [16] it was 0.973 µM (active); in assay [10], 4.94 µM (inactive); in [17], 5.71 µM (inactive); in assay [18], 3.7 µM (inactive).

In the case of `Cc1c(C#N)c2nnn(C)c(=O)n2c1-c1ccccc1`, the GI50 in assay [1] is > 100 µM (inactive); in [12], > 100 µM (inactive); in assay [3], 30.8 µM (inactive); in assay [4] it was > 100 µM (inactive); in assay [13] it was 54.5 µM (inactive); in assay [5], > 100 µM (inactive). Further, the GI50 is > 100 µM (inactive) in [7]; 62.1 µM (inactive) in assay [8]; > 100 µM (inactive) in [14]; > 100 µM (inactive) in assay [15]; 71 µM (inactive) in [16]; 87.7 µM (inactive) in [17].

Regarding `O=C1C[C@H](Sc2ccccc2)C2(OCCO2)[C@H]2ON3CCC[C@@H]3[C@@H]12`, the GI50 in assay [1] was 2.29 µM (inactive); in assay [11], 3.73 µM (inactive); in assay [12] it was 1.67 µM (inactive); in [2], 1.71 µM (inactive); in assay [3], 1.06 µM (active); in assay [4] it was 2.26 µM (inactive). The GI50 was 2.48 µM (inactive) in assay [13]; 2.06 µM (inactive) in assay [19]; 2.01 µM (inactive) in [5]; 7.23 µM (inactive) in [6]; 2.57 µM (inactive) in [7]; 8.22 µM (inactive) in assay [8]. The GI50 is 1.69 µM (inactive) in assay [14]; 3.05 µM (inactive) in [15]; 1.12 µM (inactive) in assay [16]; 1.73 µM (inactive) in assay [10]; 4.56 µM (inactive) in [17]; 1.09 µM (active) in [18].

With `O=C(CSc1nc2ccccc2c2ccccc12)c1ccccc1`, the GI50 in assay [1] is > 100 µM (inactive); in assay [11], 0.0226 µM (active); in assay [12] it was > 100 µM (inactive); in [2] it was > 100 µM (inactive); in [3], > 100 µM (inactive); in [4], > 100 µM (inactive). The GI50 in assay [13], in assay [19], in [5], in assay [6], in [7] and in [8] was > 100 µM (inactive) in each case. Besides, the GI50 in [14], in assay [15], in [16], in [10], in [17] and in [18] was > 100 µM (inactive) throughout.

For `CCCSc1ccc2[nH]c(N3C(=O)/C(=C/c4cc(OC)c(OC)c(OC)c4)N=C3c3ccccc3)cc2c1`, the GI50 in assay [1] is 11.9 µM (inactive); in assay [11], 0.67 µM (active); in assay [12], 4.03 µM (inactive); in assay [2], 8.43 µM (inactive); in assay [3] it was 5.66 µM (inactive); in assay [4] it was 10.4 µM (inactive). Besides, the GI50 in assay [13] was 16.1 µM (inactive); in assay [19], 11 µM (inactive); in assay [5], 1.39 µM (inactive); in [6], 7.53 µM (inactive); in assay [7] it was 14.5 µM (inactive); in assay [8] it was > 37.5 µM (inactive). Also, the GI50 was 16.4 µM (inactive) in assay [14]; 4.88 µM (inactive) in assay [15]; 12.6 µM (inactive) in assay [16]; 13.9 µM (inactive) in [10]; 10.8 µM (inactive) in [17]; 12.2 µM (inactive) in [18].

In the case of `O=S1(=O)CS(=O)(=O)OCCCO1`, the GI50 is 24.3 µM (inactive) in [1]; > 100 µM (inactive) in assay [11]; > 100 µM (inactive) in [12]; > 100 µM (inactive) in [2]; 59 µM (inactive) in assay [3]; > 100 µM (inactive) in assay [4]. Moreover, the GI50 in [13], in assay [19], in assay [5], in assay [6], in assay [7] and in assay [8] was > 100 µM (inactive) throughout. Besides, the GI50 was > 100 µM (inactive) in assay [14]; > 100 µM (inactive) in [15]; 97.1 µM (inactive) in assay [16]; > 100 µM (inactive) in assay [10]; > 100 µM (inactive) in [18].

Consider `CS/C(=N\S(=O)(=O)c1ccc(Cl)cc1)NCCN/C(=N/S(=O)(=O)c1ccc(Cl)cc1)SC`, for which the GI50 in assay [1] is > 100 µM (inactive); in assay [12], > 100 µM (inactive); in assay [2] it was > 100 µM (inactive); in assay [3], > 100 µM (inactive); in [4], > 100 µM (inactive); in assay [13] it was 8.43 µM (inactive). Also, the GI50 was 20.6 µM (inactive) in assay [5]; 2.3 µM (inactive) in assay [7]; > 100 µM (inactive) in [14]; > 100 µM (inactive) in assay [15]; > 100 µM (inactive) in assay [16]; 49.8 µM (inactive) in [10]. Moreover, the GI50 in assay [18] is > 100 µM (inactive).

With `O=C1/C(=C\c2cccc(Oc3ccccc3)c2)SC(c2ccccc2)N1c1cccc([N+](=O)[O-])c1` (stereo not drawn), the GI50 in [1] was > 100 µM (inactive); in assay [11] it was 98.9 µM (inactive); in assay [12] it was 41.6 µM (inactive); in assay [2], 36.6 µM (inactive); in assay [4], 65 µM (inactive); in assay [19], > 100 µM (inactive). Moreover, the GI50 in [5] is > 100 µM (inactive); in assay [6], 42.8 µM (inactive); in assay [7], 70.3 µM (inactive); in assay [8], 87.1 µM (inactive); in assay [14], > 100 µM (inactive); in assay [15], 33.9 µM (inactive). Besides, the GI50 was 28.2 µM (inactive) in assay [16], > 100 µM (inactive) in [10], > 100 µM (inactive) in assay [17] and 41.6 µM (inactive) in [18].

Consider `Cc1sc(Cc2ccccc2)nc1-c1ccc(N)cc1`, for which the GI50 was 24 µM (inactive) in assay [1]; 20.2 µM (inactive) in assay [11]; 17.7 µM (inactive) in [12]; 20.7 µM (inactive) in [2]; 26.2 µM (inactive) in assay [3]; 20.6 µM (inactive) in assay [4]. Besides, the GI50 in assay [13] is 29.9 µM (inactive); in assay [6], 18 µM (inactive); in assay [7], 12.7 µM (inactive); in assay [14] it was 21.1 µM (inactive); in [16] it was 19.5 µM (inactive); in assay [10], 31.3 µM (inactive). The figures for the GI50 in [17] and in assay [18] were 28.2 µM (inactive) and 15.2 µM (inactive), respectively.

As for `COc1cc(Nc2nc3cc(C(F)(F)F)ccc3n3cccc23)cc(OC)c1OC`, the GI50 is > 100 µM (inactive) in [1]; > 100 µM (inactive) in assay [11]; 9.46 µM (inactive) in assay [12]; > 100 µM (inactive) in assay [2]; 0.762 µM (active) in [3]; 17.8 µM (inactive) in assay [4]. Further, the GI50 is > 100 µM (inactive) in assay [13]; 2.96 µM (inactive) in assay [19]; > 100 µM (inactive) in assay [5]; 26.7 µM (inactive) in [6]; 32.4 µM (inactive) in assay [14]; > 100 µM (inactive) in [15]. The values for the GI50 in assay [16], in [10] and in assay [17] were > 100 µM (inactive), > 100 µM (inactive) and 89.5 µM (inactive), respectively.
